Assay results as given in US8580824B2, “Pyridin-4-yl derivatives as immunomodulating agents” (Actelion Pharmaceuticals Ltd., priority 2006, dated 2013).

Each compound was assayed on circulating lymphocytes in normotensive male Wistar rats (assay: Assessment of in vivo efficacy: circulating lymphocytes after oral administration). Settings: 6 h after oral administration of 10 mg/kg to normotensive male Wistar rats, compared to vehicle-treated group.
Set-up: species or system rat
Experimental: The efficacy of the compounds of Formula (I) is assessed by measuring the circulating lymphocytes after oral administration of 3 to 30 mg/kg of a compound of Formula (I) to normotensive male Wistar rats. The animals are housed in climate-controlled conditions with a 12 h-light/dark cycle, and have free access to normal rat chow and drinking water. Blood is collected before and 3, 6 and 24 h after drug administration. Full blood is subjected to hematology using Advia Hematology system (Bayer Diagnostics, Zurich, Switzerland).
All data are presented as mean±SEM. Statistical analyses are performed by analysis of variance (ANOVA) using Statistica (StatSoft) and the Student-Newman-Keuls procedure for multiple comparisons. The null hypothesis is rejected when p<0.05.
Lymphocyte counts 6 h after oral administration have been measured for 51 from 244 exemplified compounds (one being dosed at 3 mg/kg) and are in the range of −78% to −53% with an average of −67%.

Row | Compound | Lymphocyte counts [%]
1 | CCc1cc(-c2nc(-c3cc(C)c(OCC(O)CO)c(C)c3)no2)cc(C)n1 (racemic) [Example 8, (RS)-3-{4-[5-(2-Ethyl-6-methyl-pyridin-4-yl)-[1,2,4]oxadiazol-3-yl]-2,6-dimethyl-phenoxy}-propane-1,2-diol] | −62
2 | Cc1cc(-c2nc(-c3cc(C)c(OCC(O)CO)c(C)c3)no2)cc(CC(C)C)n1 (racemic) [Example 9, (RS)-3-{4-[5-(2-Isobutyl-6-methyl-pyridin-4-yl)-[1,2,4]oxadiazol-3-yl]-2,6-dimethyl-phenoxy}-propane-1,2-diol] | −67
3 | Cc1cc(-c2nc(-c3cc(C)c(OCC(O)CNC(=O)CO)c(C)c3)no2)cc(OC(C)C)n1 (racemic) [Example 30, 2-Hydroxy-N-((RS)-2-hydroxy-3-{4-[5-(2-isopropoxy-6-methyl-pyridin-4-yl)-[1,2,4]oxadiazol-3-yl]-2,6-dimethyl-phenoxy}-propyl)-acetamide] | −73
4 | COc1cc(-c2noc(-c3cc(C)nc(CC(C)C)c3)n2)cc(C)c1OCC(O)CNC(=O)CO (racemic) [Example 159, (RS)-2-Hydroxy-N-(2-hydroxy-3-{4-[5-(2-isobutyl-6-methyl-pyridin-4-yl)-[1,2,4]oxadiazol-3-yl]-2-methoxy-6-methyl-phenoxy}-propyl)-acetamide] | −74

Each compound was assayed against recombinant human S1P1 receptor (Homo sapiens, UniProt P21453) (assay: GTPγS assay to determine EC50 values). Settings: agonistic activity; membrane preparations of CHO cells expressing recombinant human S1P1 receptor; 35S-GTPγS binding.
Chain of recombinant human S1P1 receptor (P21453 whole entry): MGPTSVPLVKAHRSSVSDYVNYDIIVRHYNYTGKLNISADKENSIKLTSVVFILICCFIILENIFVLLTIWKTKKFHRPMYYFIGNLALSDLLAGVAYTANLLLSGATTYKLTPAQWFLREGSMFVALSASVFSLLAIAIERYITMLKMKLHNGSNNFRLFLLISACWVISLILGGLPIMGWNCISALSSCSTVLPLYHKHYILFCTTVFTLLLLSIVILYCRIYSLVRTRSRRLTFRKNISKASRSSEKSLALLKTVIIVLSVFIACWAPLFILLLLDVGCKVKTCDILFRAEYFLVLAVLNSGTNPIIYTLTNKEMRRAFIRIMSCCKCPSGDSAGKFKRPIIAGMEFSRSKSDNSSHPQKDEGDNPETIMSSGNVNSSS
Format: biochemical
Experimental: i) GTPγS assay to determine EC50 values
GTPγS binding assays are performed in 96 well microtiter plates (Nunc, 442587) in a final volume of 200 μl, using membrane preparations of CHO cells expressing recombinant human S1P1 receptor. Assay conditions are 20 mM Hepes (Fluka, 54461), 100 mM NaCl (Fluka, 71378), 5 mM MgCl2 (Fluka, 63064), 0.1% BSA (Calbiochem, 126609), 1 μM GDP (Sigma, G-7127), 2.5% DMSO (Fluka, 41644), 50 pM ^35S-GTPγS (Amersham Biosciences, SJ1320). The pH is 7.4. Test compounds are dissolved and diluted in 100% DMSO and pre-incubated at room temperature for 30 min in 150 μl of the above assay buffer, in the absence of ^35S-GTPγS. After addition of 50 μl of ^35S-GTPγS, the assay is incubated for 1 h at rt. The assay is terminated by transfer of the reaction mixture to a Multiscreen plate (Millipore, MAHFC1H60) using a cell harvester from Packard Biosciences, and the plates are washed with ice-cold 10 mM Na2HPO4/NaH2PO4 (70%/30%), dried, sealed at the bottom and, after addition of 25 μl MicroScint20 (Packard Biosciences, order#6013621), sealed on the top. Membrane-bound ^35S-GTPγS is measured with a TopCount from Packard Biosciences.
EC50 is the concentration of agonist inducing 50% of the maximal specific ^35S-GTPγS binding. Specific binding is determined by subtracting non-specific binding from maximal binding. Maximal binding is the amount of cpm bound to the Multiscreen plate in the presence of 10 μM of S1P. Non-specific binding is the amount of binding in the absence of an agonist in the assay.

Row | Compound | EC50 [pM]
5 | Cc1cc(-c2noc(-c3cc(Cl)nc(CC(C)C)c3)n2)cc(C)c1OCC(O)CO (racemic) [Example 4, (RS)-3-{4-[5-(2-Chloro-6-isobutyl-pyridin-4-yl)-[1,2,4]oxadiazol-3-yl]-2,6-dimethyl-phenoxy}-propane-1,2-diol] | 700
6 | Cc1cc(-c2nc(-c3cc(C)c(OCC(O)CNC(=O)CO)c(C)c3)no2)cc(CC(C)C)n1 (racemic) [Example 11, 2-Hydroxy-N-((RS)-2-hydroxy-3-{4-[5-(2-isobutyl-6-methyl-pyridin-4-yl)-[1,2,4]oxadiazol-3-yl]-2,6-dimethyl-phenoxy}-propyl)-acetamide] | 200
7 | Cc1cc(-c2noc(-c3cc(Cl)nc(OC(C)C)c3)n2)cc(C)c1OCC(O)CNC(=O)CO (racemic) [Example 26, N-((RS)-3-{4-[5-(2-Chloro-6-isopropoxy-pyridin-4-yl)-[1,2,4]oxadiazol-3-yl]-2,6-dimethyl-phenoxy}-2-hydroxy-propyl)-2-hydroxy-acetamide] | 400
8 | CCOc1cc(-c2nc(-c3cc(C)c(OCC(O)CO)c(C)c3)no2)cc(C)n1 (racemic) [Example 27, (RS)-3-{4-[5-(2-Ethoxy-6-methyl-pyridin-4-yl)-[1,2,4]oxadiazol-3-yl]-2,6-dimethyl-phenoxy}-propane-1,2-diol] | 2500
9 | CCc1cc(-c2nc(-c3cc(C)c(OC[C@H](O)CNC(=O)CO)c(Cl)c3)no2)cc(C)n1 [Example 60] | 500
10 | CCc1cc(-c2noc(-c3cc(C)c(OC[C@@H](O)CNC(=O)CO)c(CC)c3)n2)cc(C)n1 [Example 74] | 4300
11 | CCCc1cc(-c2nc(-c3cc(C)c(O)c(CC)c3)no2)cc(C)n1 [Example 86] | 5600
12 | CCCc1cc(-c2nc(-c3cc(C)c(OCC(O)CNC(=O)CO)c(C)c3)no2)cc(C)n1 (centres unmarked) [Example 95] | 400
13 | CCCc1cc(-c2nnc(-c3cc(C)c(OC[C@@H](O)CNC(=O)CO)c(C)c3)o2)cc(C)n1 [Example 111] | 1800
14 | CCCc1cc(-c2noc(-c3cc(C)nc(C(C)C)c3)n2)cc(C)c1OC[C@@H](O)CNC(=O)CO [Example 123] | 400
15 | Cc1cc(-c2nc(-c3cc(C)c(OCC(O)CNC(=O)CO)c(Cl)c3)no2)cc(CC(C)C)n1 (centres unmarked) [Example 145] | 200
16 | COc1cc(-c2noc(-c3cc(C)nc(CC(C)C)c3)n2)cc(Cl)c1OC[C@H](O)CNC(=O)CO [Example 160] | 700
17 | CCc1cc(-c2nnc(-c3cc(C)nc(CC(C)C)c3)o2)cc(C)c1OC[C@@H](O)CNC(=O)CO [Example 180] | 800
18 | CCc1cc(-c2noc(-c3cc(C)nc(C(CC)CC)c3)n2)cc(C)c1OC[C@@H](O)CO [Example 196] | 600
19 | CCc1cc(-c2noc(-c3cc(CC(C)C)nc(OC)c3)n2)cc(C)c1OC[C@@H](O)CNC(=O)CO [Example 226] | 900
20 | CCc1cc(-c2ncc(-c3cc(C)nc(CC(C)C)c3)o2)cc(C)c1OC[C@@H](O)CO [Example 235, (S)-3-{2-Ethyl-4-[5-(2-isobutyl-6-methyl-pyridin-4-yl)-oxazol-2-yl]-6-methyl-phenoxy}-propane-1,2-diol] | 5800
